Read-outs that look alike come from different tables or passages of the source.
Columns and labels:
Test in all cases: Kinase panel profiling at 1 µmol/L (MSA or IMAP), percentage inhibition
Type in all cases: biochemical
[1] = target: T1, panel of 255 wild-type kinases (Homo sapiens, UniProt O14965)
T1 sequence (O14965 1-403): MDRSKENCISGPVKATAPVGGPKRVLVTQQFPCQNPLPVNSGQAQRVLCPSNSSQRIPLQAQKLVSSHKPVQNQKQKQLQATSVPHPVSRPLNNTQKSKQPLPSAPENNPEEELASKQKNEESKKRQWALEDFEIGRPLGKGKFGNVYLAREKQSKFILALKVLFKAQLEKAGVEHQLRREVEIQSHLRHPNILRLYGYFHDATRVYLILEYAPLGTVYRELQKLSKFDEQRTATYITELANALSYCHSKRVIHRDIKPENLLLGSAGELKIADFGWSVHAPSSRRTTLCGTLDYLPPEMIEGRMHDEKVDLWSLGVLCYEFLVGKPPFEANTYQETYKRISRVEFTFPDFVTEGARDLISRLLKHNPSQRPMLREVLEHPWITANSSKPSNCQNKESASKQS

[2] = target: panel of 255 wild-type kinases (Homo sapiens, UniProt O75116); conditions: read-out: %-inhibition at 1 µmol/L, ROCK2
[3] = target: panel of 255 wild-type kinases (Homo sapiens, UniProt P06239); conditions: read-out: %-inhibition at 1 µmol/L, LCK
[4] = target: panel of 255 wild-type kinases (Homo sapiens, UniProt P49760); conditions: read-out: %-inhibition at 1 µmol/L, CLK2
[5] = target: T2, panel of 255 wild-type kinases (Homo sapiens, UniProt P54760); conditions: read-out: %-inhibition at 1 µmol/L, EPHB4
T2 sequence (P54760 16-987): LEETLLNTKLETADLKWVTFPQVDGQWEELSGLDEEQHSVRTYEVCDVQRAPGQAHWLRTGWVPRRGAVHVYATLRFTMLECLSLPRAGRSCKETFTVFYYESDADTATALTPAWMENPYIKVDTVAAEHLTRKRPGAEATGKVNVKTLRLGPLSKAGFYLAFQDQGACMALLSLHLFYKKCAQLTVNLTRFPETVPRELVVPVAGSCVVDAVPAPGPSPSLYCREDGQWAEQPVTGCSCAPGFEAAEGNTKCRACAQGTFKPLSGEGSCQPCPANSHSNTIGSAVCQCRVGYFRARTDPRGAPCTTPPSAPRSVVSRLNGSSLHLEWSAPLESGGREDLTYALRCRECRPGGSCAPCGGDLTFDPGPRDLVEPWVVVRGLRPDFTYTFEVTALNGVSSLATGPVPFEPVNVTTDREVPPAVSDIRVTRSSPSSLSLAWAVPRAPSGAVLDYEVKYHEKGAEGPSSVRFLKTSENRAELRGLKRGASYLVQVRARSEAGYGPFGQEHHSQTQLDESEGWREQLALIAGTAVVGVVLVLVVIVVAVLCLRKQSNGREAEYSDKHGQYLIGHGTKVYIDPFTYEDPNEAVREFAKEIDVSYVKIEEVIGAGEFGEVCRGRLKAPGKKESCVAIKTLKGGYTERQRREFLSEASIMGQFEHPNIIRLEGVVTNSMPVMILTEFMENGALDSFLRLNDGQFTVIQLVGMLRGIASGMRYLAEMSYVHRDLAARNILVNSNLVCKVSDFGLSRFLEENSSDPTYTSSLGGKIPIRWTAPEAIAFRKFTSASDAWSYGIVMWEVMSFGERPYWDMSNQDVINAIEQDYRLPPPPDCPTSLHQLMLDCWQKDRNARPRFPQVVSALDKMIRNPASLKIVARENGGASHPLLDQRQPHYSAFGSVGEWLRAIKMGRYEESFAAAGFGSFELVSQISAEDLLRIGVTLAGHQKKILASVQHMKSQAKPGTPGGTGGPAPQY

[6] = target: panel of 255 wild-type kinases (Homo sapiens, UniProt Q13164); conditions: read-out: %-inhibition at 1 µmol/L, Erk5
[7] = target: panel of 255 wild-type kinases (Homo sapiens, UniProt Q13554); conditions: read-out: %-inhibition CaMK2β
[8] = target: panel of 255 wild-type kinases (Homo sapiens, UniProt Q14012); conditions: read-out: %-inhibition CaMK1α
[9] = target: panel of 255 wild-type kinases (Homo sapiens, UniProt Q15759); conditions: read-out: %-inhibition, p38β
[10] = target: panel of 255 wild-type kinases (Homo sapiens, UniProt Q8N4C8); conditions: read-out: %-inhibition, MINK
[11] = target: panel of 255 wild-type kinases (Homo sapiens, UniProt Q9H422); conditions: read-out: %-inhibition at 1 µmol/L, HIPK3
[12] = target: panel of 255 wild-type kinases (Homo sapiens, UniProt Q9UBS0); conditions: read-out: %-inhibition, p70S6Kβ
[13] = AurA kinase assay, 1 µmol/L single concentration, read-out: %-inhibition AurA
[14] = AurA/TPX2 kinase assay, 1 µmol/L single concentration, read-out: %-inhibition AurA/TPX2
[15] = kinase ROCK2, 1 µmol/L single concentration
[16] = kinase LCK, 1 µmol/L single concentration
[17] = kinase CLK2, 1 µmol/L single concentration
[18] = kinase EPHB4, 1 µmol/L single concentration
[19] = kinase Erk5, 1 µmol/L single concentration
[20] = CaMK2β kinase assay, 1 µmol/L single concentration
[21] = CaMK1α kinase assay, 1 µmol/L single concentration
[22] = p38β, 1 µmol/L single concentration
[23] = MINK, 1 µmol/L single concentration
[24] = kinase HIPK3, 1 µmol/L single concentration
[25] = p70S6Kβ, 1 µmol/L single concentration

inhibition at 1 µM [1, 13] [%] | inhibition at 1 µM [1, 14] [%] | inhibition at 1 µM [2, 15] [%] | inhibition at 1 µM [3, 16] [%] | inhibition at 1 µM [4, 17] [%] | inhibition at 1 µM [5, 18] [%] | inhibition at 1 µM [6, 19] [%] | inhibition at 1 µM [7, 20] [%] | inhibition at 1 µM [8, 21] [%] | inhibition at 1 µM [9, 22] [%] | inhibition at 1 µM [10, 23] [%] | inhibition at 1 µM [11, 24] [%] | inhibition at 1 µM [12, 25] [%] | Structure (SMILES) | other results
-0.801 | -0.57 | 0.528 | 5 | 85 | 3.19 | 0.367 | -7 | -10 | 1 | -2 | 7 | 4.37 | Cc1nc(NC(=O)N2CCC[C@H]2C(N)=O)sc1-c1ccnc(C(C)(C)C(F)(F)F)c1 [alpelisib] | 
-3 | -4 | -4 | -0.655 | -2.25 | -0.0401 | -0.05 | 2.18 | -5 | 0.0465 | -4.54 | 0.0241 | 1.09 | Cn1cnc2c(F)c(Nc3ccc(Br)cc3F)c(C(=O)NOCCO)cc21 [binimetinib] | 
 |  |  |  |  |  |  |  |  |  |  |  |  | CNC(=O)c1ccc(-c2cnc3ncc(Cc4ccc5ncccc5c4)n3n2)cc1F [capmatinib] | inhibition at 1 µM ([1]; read-out: %-inhibition AurA): 3.78%; inhibition at 1 µM ([1]; read-out: %-inhibition AurA/TPX2): -6%; inhibition at 1 µM [2]: -0.288%; inhibition at 1 µM [3]: 4.23%; inhibition at 1 µM [4]: 7%; inhibition at 1 µM [5]: -1.2%; inhibition at 1 µM [6]: -3%; inhibition at 1 µM [7]: 0.692%; inhibition at 1 µM [8]: -9%; inhibition at 1 µM [9]: -2.57%; inhibition at 1 µM [10]: -4%; inhibition at 1 µM [11]: -3%; inhibition at 1 µM [12]: 12%
-1.72 | 1 | -4.35 | 93 | -0.6 | 62 | 0.172 | 2.54 | -7 | 8.44 | 7.37 | 3.75 | -0.889 | COc1cc2ncnc(Nc3ccc(F)c(Cl)c3)c2cc1NC(=O)/C=C/CN1CCCCC1 [dacomitinib] | 
-4.54 | 1.81 | -0.18 | 7 | 3.58 | 3.24 | -0.634 | -7.37 | -5.33 | 0.677 | 0.317 | 3.5 | 2.47 | C[C@H](Nc1ncnc2nc[nH]c12)c1cc2cccc(Cl)c2c(=O)n1-c1ccccc1 [duvelisib] | 

Structure (SMILES) | inhibition at 1 µM [1, 13] [%] | inhibition at 1 µM [1, 14] [%] | inhibition at 1 µM [2, 15] [%] | inhibition at 1 µM [3, 16] [%] | inhibition at 1 µM [4, 17] [%] | inhibition at 1 µM [5, 18] [%] | inhibition at 1 µM [6, 19] [%] | inhibition at 1 µM [7, 20] [%] | inhibition at 1 µM [8, 21] [%] | inhibition at 1 µM [9, 22] [%] | inhibition at 1 µM [10, 23] [%] | inhibition at 1 µM [11, 24] [%] | inhibition at 1 µM [12, 25] [%] | other results
Cn1cc(-c2cc3c(N4CCN(c5ncc([C@@](C)(N)c6ccc(F)cc6)cn5)CC4)ncnn3c2)cn1 [avapritinib] | 4.62 | 10 | 11 | 92 | 11 | 34 | 1.78 | 0.895 | -9 | -2.41 | 4.44 | -0.071 | 6 | 
CN1CCN(c2ccc(C(=O)Nc3n[nH]c4ccc(Cc5cc(F)cc(F)c5)cc34)c(NC3CCOCC3)c2)CC1 [entrectinib] | 81 | 75 | 7 |  | 28 | 73 | 13 | 13 | -5.68 | 7.47 | 1.64 | 5 | 0.699 | 
CCN1CCN(c2ccc(Nc3cc(N(C)C(=O)Nc4c(Cl)c(OC)cc(OC)c4Cl)ncn3)cc2)CC1 [infigratinib] | -5.38 | -10 | -0.775 | 91 | 15 | -0.369 | 30 |  | -22 | -1.57 | -2.82 | -3.71 | 5.43 | 
